# Experiments:
# [1] = system: Pgp expressing 2008/P200A cells; test: MTT proliferation assay, 2008/P200A cells; type: cell-based
# Protocol: The 2008 ovarian carcinoma cell line and the PAC-resistant 2008/P200A cell line (grown in 200 ng/mL of PAC) were kindly provided by Dr. John Allen (Centenary Institute, Sydney, Australia). Cells were grown in Dulbecco's modified Eagle's medium (DMEM; Life Technologies) with 10% (v/v) fetal calf serum (Sigma-Aldrich, St. Louis, Mo.) and supplemented with the following additions from Life Technologies: 1% (v/v) sodium pyruvate, 1% (v/v) non-essential amino acids, 100 U/mL penicillin, 100 μg/mL streptomycin, 2 mM L-glutamine and 0.28 μg/mL fungizone. The cells were then incubated at 37° C. in a humidified atmosphere of 5% CO2 and 95% air.
# (§1) The effect of anti-cancer agents on cellular proliferation was examined using the MTT [3-(4,5-dimethylthiazol-2-yl)-2,5-diphenyl tetrazolium] method. In this assay, 3×10^3 cells/well were seeded in 96-well plates in 100 μL of media. The next day, serially diluted drugs of interest were added. […] The cells were incubated at 37° C. in a humidified atmosphere containing 5% CO2 and 95% air for 72 h. After this incubation, 10 μL of MIT (5 mg/mL) was added to each well and the incubation continued at 37° C. for 2 h. After solubilization of the cells with 100 μL of 10% SDS-50% isobutanol in 10 mM HCl, the plates were read at 570 nm using a scanning multi-well spectrophotometer (Victor™ Multilabel Counter plate reader; Perkin Elmer, Australia). Results were analyzed to calculate the concentration of chelator or complex necessary to reduce the absorbance to 50% (IC50) of the control.
# [2] = system: non-Pgp expressing KB31 cells; test: Uptake of radio-labeled drug, KB31 cells; type: cell-based, Human
# Protocol: (§2) For the uptake assay, each 35 mm culture dish containing 5×10^5 cells was incubated with ^14C-doxorubicin, ^3H-vinblastine or ^14C-Dp44mT (all at 1 μCi) for 30 min/37° C. Cells were then washed on ice three times with ice-cold PBS and collected for analysis. Drug uptake was calculated as the number of drug molecules/cell. […] For studies using lysosomotropic agents, cells were pre-incubated with NH4Cl (5 mM), CLQ (100 μM) or MA (100 μM) for 30 min/37° C. prior to ^14C-Dp44mT uptake. […] For efflux assays, the same labeling procedure was conducted as in the uptake assay. […] After this procedure, the overlying media was removed using a Pasteur pipette and then placed in a counting vial. The cells were removed from the plate in 1 mL of PBS and then dispensed into a separate counting vial. The radiolabeled-drug efflux was calculated as a percentage of the total drug uptake by the cells found at zero time.
# [3] = system: Pgp-expressing KBV1 cells; test: MTT proliferation assay, KBV1 cells; type: cell-based, Human; conditions: 72 h
# [4] = system: non-Pgp expressing KB31 cells; test: Rhodamine 123 accumulation assay, KB31 cells; type: cell-based, Human; conditions: increased concentrations
# Protocol: (§3) Cells were then harvested and resuspended in ice-cold PBS and kept on ice until flow cytometric analysis (see below).
# (§4) The dyes, Rh123 and acridine orange were detected with the FACS Canto flow cytometer (BD Biosciences) and 10,000 events were acquired for every sample. Data analysis was performed using FlowJo software, version 7.5.5 (Tree Star Inc., Ashland, OR).
# [5] = system: Pgp-expressing KBV1 cells; test: Uptake of radio-labeled drug, KBV1 cells; type: cell-based, Human
# Protocol: as §2, with “Cells” for “For the uptake assay, each 35 mm culture dish containing 5×10^5 cells was incubated with ^14C-doxorubicin, ^3H-vinblastine or ^14C-Dp44mT (all at 1 μCi) for 30 min/37° C. Cells”, “vial.” for “vial. The radiolabeled-drug efflux was calculated as a percentage of the total drug uptake by the cells found at zero time.”
# Pgp [6] = target: T1, Pgp (Homo sapiens, UniProt P08183); test: Rhodamine 123 accumulation assay, KBV1 cells; type: cell-based; conditions: 0.1 μM or above
# Protocol: as §3, §4
# KBV1 cells = test: MTT cytotoxicity after transient knockdown of Pgp (MDR1 siRNA) in KBV1 cells; type: cell-based, Human; conditions: Pgp siRNA vs. Scr siRNA, 72 h
# Protocol: as §1
# For all siRNA treatments against MDR1 (MDR1-siRNA; Cat #: 4123, Life Technologies), a siRNAlipofectamine mixture (50 nM MDR1 siRNA and 1/400 lipofectamine 2000) was added to the cells (at 30% confluency) and incubated for 72 h/37° C. prior to further experimentation. The effectiveness of Pgp knockdown was confirmed using western blot and also assessing DOX cytotoxicity via the MTT assay. As a control, scrambled siRNA (Scr siRNA; Life Technologies) was used at the same concentration as MDR1 siRNA.
# Pgp [7] = target: T1, Pgp; test: Pgp-ATPase activity assay (Pgp-Glo); conditions: 40 min
# Protocol: The ATPase activities of Pgp were determined using Pgp-enriched membranes and a luminescent ATP detection kit (Pgp-Glo Assay Kit, Promega, USA) according to the manufacturer's instructions. Briefly, Pgp membranes (0.5 mg/mL) and Mg(II)-ATP (5 mM) were incubated in the absence or presence of sodium orthovanadate (100 μM) for 40 min/37° C. and ATP detected as a luciferase-generated luminescent signal. Basal Pgp-ATPase activities were determined as the difference between the ATP hydrolysis in the presence or absence of sodium orthovanadate. Verapamil-stimulated Pgp-ATPase activity was measured in the presence of the Pgp control substrate, verapamil (200 μM).
# Test substrates (Dp44mT and Bp4eT) of interest were dissolved in dimethyl sulfoxide. The final concentration of DMSO in the assay medium was less than 1%.
# The Pgp Glo™ ATPase assay (Promega, Madison, Wis.) was used to assess if Dp44mT and Bp4eT are substrates of Pgp. The ATPase assay measures the Pgp-mediated ATPase activity of Pgp by quantitating ATP consumption in the presence of the compounds of interest after incubation with purified membrane proteins containing high levels of Pgp. […] The basal ATPase activity of Pgp is compared to the ATPase activity stimulated or inhibited by the compounds of interest.
# [8] = system: Pgp-expressing KBV1 cells; conditions: previously reported (ref. 5); cited from earlier work
# 2008 cells = test: Uptake of 14C-Dp44mT, 2008 cells; type: cell-based; conditions: NH4Cl, MA or CLQ pre-incubation
# Protocol: as §2
# T1 sequence (P08183 whole entry): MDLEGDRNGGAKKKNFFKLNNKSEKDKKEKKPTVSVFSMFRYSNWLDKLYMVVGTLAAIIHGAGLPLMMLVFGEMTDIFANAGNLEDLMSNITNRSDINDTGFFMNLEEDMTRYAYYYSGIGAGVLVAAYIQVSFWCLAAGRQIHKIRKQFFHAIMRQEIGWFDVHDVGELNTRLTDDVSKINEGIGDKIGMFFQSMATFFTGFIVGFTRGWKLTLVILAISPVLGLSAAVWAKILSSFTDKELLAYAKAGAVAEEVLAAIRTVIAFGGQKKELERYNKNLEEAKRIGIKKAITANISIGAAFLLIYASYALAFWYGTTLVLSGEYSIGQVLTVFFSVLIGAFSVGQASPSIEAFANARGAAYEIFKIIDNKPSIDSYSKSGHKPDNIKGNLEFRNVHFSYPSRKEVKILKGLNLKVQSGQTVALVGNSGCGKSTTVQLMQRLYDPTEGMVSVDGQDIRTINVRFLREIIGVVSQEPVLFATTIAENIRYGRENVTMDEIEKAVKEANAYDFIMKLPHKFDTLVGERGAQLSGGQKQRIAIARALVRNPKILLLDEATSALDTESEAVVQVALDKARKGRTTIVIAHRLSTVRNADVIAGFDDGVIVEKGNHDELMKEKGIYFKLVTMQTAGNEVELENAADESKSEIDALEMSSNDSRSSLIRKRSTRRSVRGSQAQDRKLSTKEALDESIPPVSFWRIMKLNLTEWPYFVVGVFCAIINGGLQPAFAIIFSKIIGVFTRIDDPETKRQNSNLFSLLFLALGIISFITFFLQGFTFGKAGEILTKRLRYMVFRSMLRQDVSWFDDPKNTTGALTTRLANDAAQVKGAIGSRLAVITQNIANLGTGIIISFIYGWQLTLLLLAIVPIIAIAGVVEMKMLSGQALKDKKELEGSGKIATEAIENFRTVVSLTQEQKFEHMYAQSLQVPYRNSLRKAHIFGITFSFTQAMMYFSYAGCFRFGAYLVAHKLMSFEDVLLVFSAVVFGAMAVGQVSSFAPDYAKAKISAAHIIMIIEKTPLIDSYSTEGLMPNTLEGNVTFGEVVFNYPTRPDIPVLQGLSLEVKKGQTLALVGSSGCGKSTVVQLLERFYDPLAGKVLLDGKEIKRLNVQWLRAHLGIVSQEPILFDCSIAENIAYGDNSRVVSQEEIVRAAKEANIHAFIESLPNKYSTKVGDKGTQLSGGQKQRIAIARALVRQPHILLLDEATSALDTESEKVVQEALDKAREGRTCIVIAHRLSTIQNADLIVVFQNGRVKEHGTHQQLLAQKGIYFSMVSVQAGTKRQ
structure (smiles),measurement,setting,value
"CN(C)C(=S)NN=C(c1ccccn1)c1ccccn1 [Dp44mT, di-2-pyridylketone 4,4-dimethyl-3-thiosemicarbazone]",change of cytotoxicity in presence of Pgp inhibitors Val or Ela,"[1]; 2008/P200A cells, Val 1 μM, Ela 0.1 μM",significantly (p<0.001) decreased sensitivity
same,sensitivity of 2008/P200A cells compared to 2008 cells,[1]; 72 h,significantly (p<0.001) increased sensitivity
same,accumulation after pre-treatment with lysosomotropic agents,"[2]; NH4Cl, MA or CLQ pre-incubation",did not significantly affect
same,effect of Pgp inhibitors Val and Ela on uptake,"[2]; Val 1 μM or Ela 0.1 μM pre-incubation, versus control",did not significantly alter radiolabel uptake
same,more cytotoxic in drug-resistant KBV1 cells compared to KB31 cells,[3],31 fold
same,change of cytotoxicity in presence of Pgp inhibitors Val or Ela,"[3]; KBV1 cells, Val 1 μM, Ela 0.1 μM",clear decrease in the cytotoxicity
same,effect on Rh123 accumulation,[4],did not significantly affect Rh123 accumulation
same,accumulation after pre-treatment with lysosomotropic agents,"[5]; KBV1 cells, NH4Cl, MA or CLQ pre-incubation 30 min/37° C.",significantly (p<0.001) decreased
same,effect of Pgp inhibitors Val and Ela on uptake,"[5]; KBV1 cells, Val 1 μM or Ela 0.1 μM pre-incubation, versus control",significantly (p<0.001) increased the uptake
same,cellular accumulation in KBV1 cells relative to KB31 cells,"[5]; control groups, 1 μCi",significantly (p<0.001) less
same,increased accumulation of Rh123,Pgp [6],up to two fold
same,increase of IC50 by knockdown of Pgp,KBV1 cells,10 fold
same,stimulation of basal catalytic (ATPase) activity of Pgp,Pgp [7],3- to 8 fold
same,cytotoxicity to KBV1 cells relative to KB31 cells,[8],increased cytotoxicity
same,accumulation after pre-treatment with lysosomotropic agents,2008 cells,did not significantly affect

# Reference: patent publication US20150306081A1, “Chemotherapy for Drug-Resistant Cancer Cells” (THE UNIVERSITY OF SYDNEY, priority 2012, published 2015)
